Values of other authors, collected in patent US20040265381A1, “Anti-asthmatic drug (asmakure) from indigenous herbs to cure the disease asthma” (priority 2001, published 2004).

For CCN(CC)CC#CCOC(=O)C(O)(c1ccccc1)C1CCCCC1.Cl (stereo not drawn) [Oxybutynin, α-cyclohexyl-α-hydroxybenzeneacetic acid 4-(diethylamino)-2-butynyl ester hydrochloride], the “start of pharmacological action” value (following oral administration) is given as “within one hour” and the half-life (in vivo) is given as “less than 2 hours”.
